Assay results reported in patent EP3593822A1, “THERAPEUTIC AND DIAGNOSTIC APPLICATIONS OF A NEW METHOD OF MONITORING OF NEUROGLIAL INTERACTION MEMRI)” (Theranexus, priority 2018, dated 2020).
Counter-ions that a name gives are not always drawn.

Molecular target: T1, Cx43 (Mus musculus, UniProt P23242)
T1 construct: from tissue; host or cells: brain of living wild-type C57BL/6 male mice (in vivo)
Assay: Manganese-enhanced MRI (MEMRI) of mouse brain after administration of connexin modulators
Type: in vivo, wild-type C57BL/6 male mice
Conditions: for T1-w signal intensity (% of control): 1 mg/kg i.p. 2.5h before imaging, 24h after MnCl2 50 mg/kg i.p., mean ± SEM; for increase of T1-w signal intensity: n=6, change versus control, 1 mg/kg i.p.
Description: The MRI measurements were performed on 42 wild-type C57BL/6 male mice. All mice weighed between 25 and 35 g. Mice were housed 4-5 per cage under standard conditions (12/12 h light-dark cycle, light on at 7 am, 22 ± 1°C ambient temperature, 60% relative humidity). This work was carried out in accordance with the Policies of the French Committee of Ethics. Animal surgery and experimentations conducted in this study were authorized by the French Direction of Veterinary Services and all efforts were made to improve animal welfare and minimize animals suffering.
All animals were injected intraperitoneally with MnCl2 50 mg/kg. Animals received an injection of treatment (or saline) 24h after the MnCl2 administration, and were imaged 2.5h later.
The mice were anesthetized with 0.5-1.0% isoflurane in air throughout the experiments. The respiration rate was monitored and the body temperature was maintained at 36.5 °C using an MR-compatible, feedback-controlled air heating system (model 1025; SA Instruments, NY). A capillary filled with 100 µM MnCl2 was placed on the head, inside the RF coil, and was used as signal intensity reference.
The T1-weighted images were acquired using a 3D rapid acquisition with relaxation enhancement (RARE) sequence: RARE factor 4, repetition time/echo time = 250 ms / 6 ms, 4 averages. For T1 relaxation time measurements, a true fast Imaging with Steady-state free Precession (trueFISP) sequence was used with the following acquisition parameters: repetition time/echo time = 3.66/1.83 ms, flip angle = 10, inversion time = 80 ms, number of inversion times = 60, 2 averages.
The position of the brain image was co-registered to a template using SPM8 software (Welcome Trust Center for Neuroimaging, UK). The template image was co-registered to mouse brain atlas (Paxinos and Franklin's the Mouse Brain in Stereotaxic Coordinates 3rd Edition). T1-weighted signals were normalized using the signal intensity from the reference tube. T1 maps were calculated as described previously elsewhere (74). Eighteen regions of interest (ROIs) were defined using the mouse brain atlas.
The averaged T1-weighted signals and T1 values were calculated using an in house written Matlab program. To compensate for differences in coil sensitivity between left and right channels we calculated the signal intensities in ROIs drawn in the left and right cerebral cortex, including the somatosensory cortex and insular cortex, (ROIcortex_left ROIcortex_right). The averaged T1-weighted signal intensity on the left side (SIleft) was then corrected following the equation: SIleft_corrected = SIleft × SIcortex_right /SIcortex_left [formula]
Statistical analyses were performed using GraphPad Prism version 7.0c. Data were analyzed using Mann-Whitney non-parametric test, paired t test or one sample t test compared to the hypothetical value 1 or 100 as appropriate. In each experiment, a level of p<0.05 was accepted as evidence for a statistically significant effect. * p<0.05; ** p<0.01; *** p<0.001. Response of the MEMRI signal after drugs administration are expressed as means ± SEM of percent of control. The remaining data are expressed as mean ± SEM.
For all, MEMRI signals are expressed as percentage of control. Statistical significances are based on the comparison to the hypothetical value 100%.

[1] = LPB = Lateral parabrachial nucleus
[2] = mPFC = Medial prefrontal cortex

T1 sequence (P23242 2-382 limits assumed): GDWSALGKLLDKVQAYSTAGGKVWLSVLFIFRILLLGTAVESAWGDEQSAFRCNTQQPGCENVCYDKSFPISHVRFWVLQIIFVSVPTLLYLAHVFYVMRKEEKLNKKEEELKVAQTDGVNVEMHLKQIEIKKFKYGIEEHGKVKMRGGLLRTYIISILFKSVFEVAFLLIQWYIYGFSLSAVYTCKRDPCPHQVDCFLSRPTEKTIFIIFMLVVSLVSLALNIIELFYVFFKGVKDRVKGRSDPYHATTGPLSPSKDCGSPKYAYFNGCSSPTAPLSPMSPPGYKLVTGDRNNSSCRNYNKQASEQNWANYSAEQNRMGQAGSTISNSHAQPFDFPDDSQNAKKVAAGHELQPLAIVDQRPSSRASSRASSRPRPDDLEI

SMILES | T1-w signal intensity (% of control) (AC = Auditory cortex) | T1-w signal intensity (% of control) (Cg = Cingulate cortex) | T1-w signal intensity (% of control) (Cpu = Caudate putamen) | T1-w signal intensity (% of control) (DRa = Dorsal raphe pallidus) | T1-w signal intensity (% of control) (Hip = Hippocampus) | T1-w signal intensity (% of control) (Hyp = Hypothalamus) | T1-w signal intensity (% of control) (IC = Insular cortex) | T1-w signal intensity (% of control) (LC = Locus coeruleus) | T1-w signal intensity (% of control) [1] | T1-w signal intensity (% of control) (MC = Motor cortex) | T1-w signal intensity (% of control) (OB = Olfactory bulb) | T1-w signal intensity (% of control) (OC = Orbital cortex) | T1-w signal intensity (% of control) (PrL = Prelimbic cortex) | T1-w signal intensity (% of control) (SC = Somatosensory cortex) | T1-w signal intensity (% of control) (SN = Substantia nigra) | T1-w signal intensity (% of control) (Sep = Septum) | T1-w signal intensity (% of control) (ThN = Thalamic nuclei) | increase of T1-w signal intensity (hypothalamus) | T1-w signal intensity (% of control) [2] | increase of T1-w signal intensity (olfactory bulb) | other results
O=C(NCC1CCCCN1)c1cc(OCC(F)(F)F)ccc1OCC(F)(F)F (centres unmarked) [flecainide, flecainide acetate salt] | 114 ± 4.04 % of control | 123 ± 5.73 % of control | 120 ± 6.01 % of control | 122 ± 6.86 % of control | 118 ± 4.73 % of control | 121 ± 7.05 % of control | 118 ± 5.62 % of control | 119 ± 5.69 % of control | 119 ± 6.07 % of control | 122 ± 5.09 % of control | 123 ± 9.21 % of control | 123 ± 8.23 % of control | 121 ± 7.09 % of control | 120 ± 4.88 % of control | 117 ± 6.97 % of control | 119 ± 6.95 % of control | 121 ± 5.47 % of control | ~+20.9% | 121 ± 6.86 % of control | – | increase of T1-w signal intensity (dorsal raphe pallidus): approximately +21.9%; increase of T1-w signal intensity (lateral parabrachial nucleus): ~+19%; increase of T1-w signal intensity (locus coeruleus): ~+19.2%
Cc1ccc(Cl)c(Nc2ccccc2C(=O)O)c1Cl [meclofenamic acid] | 117 ± 5.68 % of control | 127 ± 4.49 % of control | 130 ± 3.90 % of control | 112 ± 5.31 % of control | 118 ± 4.32 % of control | 118 ± 5.38 % of control | 128 ± 5.17 % of control | 104 ± 6.23 % of control | 106 ± 6.15 % of control | 122 ± 4.61 % of control | 147 ± 4.91 % of control | 138 ± 4.69 % of control | 136 ± 4.41 % of control | 120 ± 4.90 % of control | 118 ± 5.67 % of control | 136 ± 3.68 % of control | 120 ± 4.87 % of control | approximately +18.5% | 136 ± 4.33 % of control | ~+47.4% | T1-w signal intensity (% of control) (LPB = Lateral parabrachial nucleus, listed as MFA): 106 ± 6,15 % of control; increase of T1-w signal intensity (substantia nigra): ~+17.9%
OC(c1cc(C(F)(F)F)nc2c(C(F)(F)F)cccc12)C1CCCCN1 (centres unmarked) [mefloquine, Mefloquine] | – | – | – | 113 ± 6.84 % of control | – | 113 ± 8.39 % of control | – | 111 ± 7.61 % of control | 111 ± 6.96 % of control | – | – | – | – | – | – | – | – | – | – | +26.5% | increase of T1-w signal intensity (substantia nigra): +19,2%
